According to patent US20260022098A1, “BULLEYACONITINE A DERIVATIVE WITH ANALGESIC ACTIVITY, AND PREPARATION METHOD AND APPLICATION THEREOF” (priority 2023, published 2026):

Experiments:
Kunming mice [1] = assay: Analgesic activity by acetic acid-induced writhing method (writhing inhibition rate, ED50); format: in vivo; settings: Mus musculus, sc, read-out: Analgesia rate (%) ± SEM
Experimental: (§1) The experimental animals were Kunming mice (male:female=1:1), weighed 22+2 g, which were provided by Chengdu dossy experimental animals Co., ltd., China. The mice were kept in the animal room of the School of Life Science and Engineering, Southwest Jiaotong University, where the animal room was set at a temperature of 23±2° C., a humidity of […] and a photoperiod of 16:8 h (L:D). Before the experiment, the mice were freely fed for 2-3 days with water and feed to adapt to the new environment. Then, the mice were treated by water and food fasting for 12 h. 10 animals were allocated to each group to ensure that there are at least 6 sets of valid data in each group. The animal experiments were carried out in strict accordance with the national regulations on the management of experimental animals.
(§2) The compounds prepared in the examples provided herein (test sample set) and bulleyaconitine A (positive control set) were all dissolved with 0.1 mol/L HCl according to a molar ratio of 1:1, and then diluted with physiological saline to a concentration to be determined. Blank control was physiological saline containing 0.1 mol/L HCl. The animals in the control groups were subjected to the same treatment as those in experimental groups except that samples to be test were replaced with physiological saline.
(1) Determination of Analgesic Activity Through an Acetic Acid-Induced Writhing Method
10 mice were randomly selected, male:female=1:1, were placed in independent cages. Each mouse was injected subcutaneously with the sample solution mentioned above at a dose of 0.1 mL/10 g body weight. After 15 min, a 0.7% acetic acid solution was intraperitoneally injected. A number of writhing reactions in each mouse within 15 minutes was recorded. The group that the mice were injected with physiological saline subcutaneously was the blank group; the group that the mice were injected with the sample to be tested was the experimental group; and the group that the mice were injected with bulleyaconitine A was the positive group. The analgesic activity was represented by a percentage of the reduced number of writhing compared to the blank group (writhing inhibition rate), which were specifically as follows: writhing inhibition rate (analgesic activity)=(average number of writhing times in the blank group-average number of writhing times in the experimental group)/average number of writhing times in the blank group×100%.
Median Effective Dose (ED50) Determination
The sample to be tested was dissolved with 0.1 mol/L HCl according to the amount of the substance ratio of 1:1, and diluted with physiological saline according to the proportional series to obtain at least 5 groups with different dose concentrations. The writhing inhibition rate of each dose group was tested according to the acetic acid-induced writhing method mentioned above. The obtained dose-writhing inhibition data was entered into the statistical product and service solutions (SPSS) software (version 17.2), and the ED50 of the sample to be tested was calculated through the Probit regression method.

Kunming mice [2] = assay: Acute toxicity / median lethal dose (LD50) determination, subcutaneous injection; format: in vivo; design: key to Acute toxicity: if death occurred, (+) represented as positive; if no death occurred, (−) represented as negative; settings: mice administered 20 mg/kg subcutaneously, presence of death within 24 h
Experimental: as §1, §2
(2) Median Lethal Dose (LD50) Determination
The sample to be tested was dissolved with 0.1 mol/L HCl according to the amount of the substance ratio of 1:1, and diluted with physiological saline according to the required concentration. 10 mice in each group were randomly selected, half of which were male and half of which were female, and were placed in independent cages. Each mouse was injected subcutaneously with different sample solutions to be tested according to a dose of 0.1 mL/10 g body weight. In the preliminary toxicity experiment, the measured concentration was 20 mg/kg, and then based on the survival rate of the experimental animals in the preliminary experiment, the sample to be tested was set to at least 5 groups with different concentration dose according to the proportional series. The survival rate of mice within 24 h was recorded. The obtained dose-survival rate data was input into the SPSS software (version 17.2), and the LD50 of the sample was calculated according to the Probit regression method.

SMILES | inhibition in vivo at 0.05 mg/kg (Kunming mice [1]) [%] | Acute toxicity (Kunming mice [2])
CCN1C[C@]2(COC)CC[C@H](OC)[C@@]34C5C[C@]6(OC(=O)c7ccc(F)cc7)[C@@H](OC)C[C@@](OC(C)=O)(C5[C@H]6OC(=O)c5ccc(OC)cc5)C([C@H](OC)C23)[C@@H]14 (some centres unmarked) [Compound 61] | 34 ± 1.9 | −
CCN1C[C@]2(COC)CC[C@H](OC)[C@@]34C5C[C@]6(OC(=O)c7ccc(Cl)cc7)[C@@H](OC)C[C@@](OC(C)=O)(C5[C@H]6OC(=O)c5ccc(OC)cc5)C([C@H](OC)C23)[C@@H]14 (some centres unmarked) [Compound 84] | 27 ± 1.4 | −
CCN1C[C@]2(COC)CC[C@H](OC)[C@@]34C5C[C@]6(OC(C)=O)[C@@H](OC)C[C@@](OC)(C5[C@H]6OC(C)=O)C([C@H](OC)C23)[C@@H]14 (some centres unmarked) [Compound 44] | 5.82 ± 3.4 | −
CCO[C@]12C[C@H](OC)[C@@]3(OC(=O)c4ccc(Br)cc4)CC(C1[C@H]3OC(=O)c1ccc(Br)cc1)[C@]13C4[C@@H](OC)C2[C@H]1N(CC)C[C@]4(COC)CC[C@@H]3OC (some centres unmarked) [Compound 64] | 22.4 ± 1.4 | −
CCO[C@]12C[C@H](OC)[C@@]3(OC(=O)c4ccc(OC(F)(F)F)cc4)CC(C1[C@H]3OC(=O)c1ccc(OC(F)(F)F)cc1)[C@]13C4[C@@H](OC)C2[C@H]1N(CC)C[C@]4(COC)CC[C@@H]3OC (some centres unmarked) [Compound 94] | 0 | −
CCO[C@]12C[C@H](OC)[C@@]3(OC(=O)c4cccc(Br)c4)CC(C1[C@H]3OC(=O)c1cccc(Br)c1)[C@]13C4[C@@H](OC)C2[C@H]1N(CC)C[C@]4(COC)CC[C@@H]3OC (some centres unmarked) [Compound 70] | 5.83 ± 1.7 | −
CCN1C[C@]2(COC)CC[C@H](OC)[C@@]34C5C[C@]6(OC(=O)c7ccc(OC)cc7)[C@@H](OC)C[C@@](OC(C)=O)(C5[C@H]6OC(=O)c5ccc(OC)cc5)C([C@H](OC)C23)[C@@H]14 (some centres unmarked) [Compound 9] | 33.5 ± 1.9 | −
CCN1C[C@]2(COC)CC[C@H](OC)[C@@]34C5C[C@]6(OC(=O)c7ccc(Br)cc7)[C@@H](OC)C[C@@](OC(C)=O)(C5[C@H]6OC(=O)c5ccc(OC)cc5)C([C@H](OC)C23)[C@@H]14 (some centres unmarked) [Compound 92] | 4.12 ± 1.7 | −
CCN1C[C@]2(COC)CC[C@H](OC)[C@@]34C5C[C@]6(OC(=O)C7CCCCC7)[C@@H](OC)C[C@@](OC)(C5[C@H]6OC(=O)C5CCCCC5)C([C@H](OC)C23)[C@@H]14 (some centres unmarked) [Compound 34] | 37 ± 1.4 | −
CCO[C@]12C[C@H](OC)[C@@]3(OC(=O)c4ccncc4)CC(C1[C@H]3OC(=O)c1ccncc1)[C@]13C4[C@@H](OC)C2[C@H]1N(CC)C[C@]4(COC)CC[C@@H]3OC (some centres unmarked) [Compound 49] | 13.7 ± 1 | −
CCO[C@]12C[C@H](OC)[C@@]3(OC(=O)C(C)C)CC(C1[C@H]3OC(=O)c1ccc(OC)cc1)[C@]13C4[C@@H](OC)C2[C@H]1N(CC)C[C@]4(COC)CC[C@@H]3OC (some centres unmarked) [Compound 81] | 28.8 ± 1.2 | −
CCN1C[C@@]2(COC)C3[C@@H](OC)C4[C@@H]1[C@@]3(C1C[C@]3(O)[C@@H](OC)C[C@@]4(OC)C1[C@H]3O)[C@@H](OC)C[C@H]2O (some centres unmarked) [Compound 3] | 9.78 ± 1.9 | −
CCN1C[C@]2(COC)CC[C@H](OC)[C@@]34C5C[C@]6(OC(=O)c7ccco7)[C@@H](OC)C[C@@](OC)(C5[C@H]6OC(=O)c5ccco5)C([C@H](OC)C23)[C@@H]14 (some centres unmarked) [Compound 32] | 37.3 ± 1.4 | −
CCO[C@]12C[C@H](OC)[C@@]3(OC(=O)c4ccc(Cl)s4)CC(C1[C@H]3OC(=O)c1ccc(OC)cc1)[C@]13C4[C@@H](OC)C2[C@H]1N(CC)C[C@]4(COC)CC[C@@H]3OC (some centres unmarked) [Compound 20] | 0 | −
CCO[C@]12C[C@H](OC)[C@@]3(OC(=O)c4ccc(C)cc4)CC(C1[C@H]3OC(=O)c1ccc(OC)cc1)[C@]13C4[C@@H](OC)C2[C@H]1N(CC)C[C@]4(COC)CC[C@@H]3OC (some centres unmarked) [Compound 57] | 5.39 ± 2 | −
CCN1C[C@]2(COC)CC[C@H](OC)[C@@]34C5C[C@]6(OC(=O)c7ccccc7)[C@@H](OC)C[C@@](OC(C)=O)(C5[C@H]6OC(=O)c5ccc(OC)cc5)C([C@H](OC)C23)[C@@H]14 (some centres unmarked) [Compound 54] | 0 | −
CCOc1ccc(C(=O)O[C@]23CC4C([C@H]2OC(=O)c2ccc(OC)cc2)[C@](OCC)(C[C@@H]3OC)C2[C@H](OC)C3[C@@]5(COC)CC[C@H](OC)[C@@]43[C@@H]2N(CC)C5)cc1 (some centres unmarked) [Compound 36] | 13.6 ± 2.5 | −
CCO[C@]12C[C@H](OC)[C@@]3(OC(=O)c4ccncc4)CC(C1[C@H]3OC(=O)c1ccc(OC)cc1)[C@]13C4[C@@H](OC)C2[C@H]1N(CC)C[C@]4(COC)CC[C@@H]3OC (some centres unmarked) [Compound 50] | 33.2 ± 1.4 | −
CCN1C[C@]2(COC)CC[C@H](OC)[C@@]34C5C[C@]6(OC(=O)c7ccccc7)[C@@H](OC)C[C@@](OC)(C5[C@H]6OC(=O)c5ccccc5)C([C@H](OC)C23)[C@@H]14 (some centres unmarked) [Compound 55] | 11.7 ± 1.6 | −
C/C=C/C(=O)O[C@@H]1C2C3C[C@]1(OC(=O)/C=C/C)[C@@H](OC)C[C@]2(OCC)C1[C@H](OC)C2[C@@]4(COC)CC[C@H](OC)[C@@]32[C@@H]1N(CC)C4 (some centres unmarked) [Compound 85] | 22.4 ± 3.3 | −
CCO[C@]12C[C@H](OC)[C@@]3(OC(=O)C(C)Cl)CC(C1[C@H]3OC(=O)C(C)Cl)[C@]13C4[C@@H](OC)C2[C@H]1N(CC)C[C@]4(COC)CC[C@@H]3OC (some centres unmarked) [Compound 7] | 22.8 ± 3.3 | −
CCO[C@]12C[C@H](OC)[C@@]3(OC(=O)c4ccc(Br)cc4)CC(C1[C@H]3OC(=O)c1ccc(OC)cc1)[C@]13C4[C@@H](OC)C2[C@H]1N(CC)C[C@]4(COC)CC[C@@H]3OC (some centres unmarked) [Compound 91] | 31.4 ± 1.5 | −
CCO[C@]12C[C@H](OC)[C@@]3(OC(=O)c4ccc(C(F)(F)F)cc4)CC(C1[C@H]3OC(=O)c1ccc(C(F)(F)F)cc1)[C@]13C4[C@@H](OC)C2[C@H]1N(CC)C[C@]4(COC)CC[C@@H]3OC (some centres unmarked) [Compound 46] | 16.7 ± 2.6 | −
CCO[C@]12C[C@H](OC)[C@@]3(OC(=O)c4cc(F)cc(F)c4)CC(C1[C@H]3OC(=O)c1cc(F)cc(F)c1)[C@]13C4[C@@H](OC)C2[C@H]1N(CC)C[C@]4(COC)CC[C@@H]3OC (some centres unmarked) [Compound 74] | 23.9 ± 2.8 | −
CCO[C@]12C[C@H](OC)[C@@]3(OC(=O)c4ccccc4)CC(C1[C@H]3OC(=O)c1ccc(OC)cc1)[C@]13C4[C@@H](OC)C2[C@H]1N(CC)C[C@]4(COC)CC[C@@H]3OC (some centres unmarked) [Compound 53] | 0 | −
CCN1C[C@]2(COC)CC[C@H](OC)[C@@]34C5C[C@]6(OC(=O)c7cccnc7)[C@@H](OC)C[C@@](OC)(C5[C@H]6OC(=O)c5cccnc5)C([C@H](OC)C23)[C@@H]14 (some centres unmarked) [Compound 30] | 31.1 ± 2.4 | −
CCOc1ccc(C(=O)O[C@@H]2C3C4C[C@]2(OC(=O)c2ccc(OCC)cc2)[C@@H](OC)C[C@]3(OCC)C2[C@H](OC)C3[C@@]5(COC)CC[C@H](OC)[C@@]43[C@@H]2N(CC)C5)cc1 (some centres unmarked) [Compound 35] | 0 | −
CCOc1ccc(C(=O)O[C@]23CC4C([C@H]2OC(=O)c2ccc(OC)cc2)[C@](OC(C)=O)(C[C@@H]3OC)C2[C@H](OC)C3[C@@]5(COC)CC[C@H](OC)[C@@]43[C@@H]2N(CC)C5)cc1 (some centres unmarked) [Compound 37] | 21.2 ± 1.7 | −
